Key:
rat [1] = settings: Prenatal developmental toxicity study, sprague dawley, Oral, Gavage/Intubation, dose end: 17 GD, group: maternal
rat [2] = settings: Prenatal developmental toxicity study, sprague dawley, Oral, Gavage/Intubation, dose end: 17 GD
rabbit [3] = settings: Prenatal developmental toxicity study; new zealand white; Oral; Gavage/Intubation; dose end: 19 GD; group: maternal; systemic / in life observation / body weight / body weight gain
rat [4] = settings: Fertility (Segment I), sprague dawley, Oral, Gavage/Intubation, dose end: 7 GD
rat [5] = settings: Chronic toxicity; sprague dawley; Oral; Gavage/Intubation; dose end: 6 month; group: systemic; systemic / clinical chemistry / sodium / sodium + systemic / clinical chemistry / bilirubin / total bilirubin + systemic / clinical …
dog [6] = settings: Sub-acute repeat dose toxicity; beagle; Oral; Capsule; dose end: 1 month; group: systemic; systemic / clinical chemistry / triglycerides / triglycerides
rabbit [7] = settings: Prenatal developmental toxicity study; new zealand white; Oral; Gavage/Intubation; dose end: 19 GD; group: maternal; systemic / in life observation / body weight / body weight + systemic / in life observation / body weight / body weight gain + systemic / in…
rat [8] = settings: Fertility (Segment I), sprague dawley, Oral, Gavage/Intubation, dose end: 2 week, group: parental
rat [9] = settings: Sub-acute repeat dose toxicity, sprague dawley, Oral, Gavage/Intubation, dose end: 31 day, group: systemic
rat [10] = settings: Fertility (Segment I), sprague dawley, Oral, Gavage/Intubation, dose end: 7 GD; remark: listed apart in the source
mouse [11] = settings: Prenatal developmental toxicity study, CD-1, Dermal, Topical, dose end: 13 GD, group: maternal
rabbit [12] = settings: Prenatal developmental toxicity study, Dermal, Topical, dose end: 16 GD, group: maternal
rat [13] = settings: Subchronic oral toxicity in rodents, sprague dawley, Feed, dose end: 90 day, group: systemic, systemic / organ weight / liver / absolute + systemic / organ weight / liver / relative to body weight + systemic / clinical chemistry / …
dog [14] = settings: Chronic toxicity, beagle, Oral, Capsule, dose end: 52 week, group: systemic
rabbit [15] = settings: Prenatal developmental toxicity study, new zealand white, Oral, Gavage/Intubation, dose end: 19 GD
mouse [16] = settings: Combined chronic toxicity/carcinogenicity; other; Oral; Feed; dose end: 99 week; group: systemic; systemic / hematology / erythrocyte (rbc) count differential / erythrocyte (rbc) + systemic / hematology / hematocrit (hct) / hematocrit (…
dog [17] = settings: Subchronic oral toxicity in nonrodent, beagle, Capsule, dose end: 13 week, group: systemic, systemic / organ weight / thyroid gland / absolute + systemic / organ weight / thyroid gland / relative to body weight
rat [18] = settings: Prenatal developmental toxicity study, sprague dawley, Oral, Gavage/Intubation, dose end: 15 GD
mouse [19] = settings: Carcinogenicity; cd1; Oral; Feed; dose end: 105 week; group: systemic; systemic / pathology microscopic / liver / adenocarcinoma + systemic / pathology microscopic / liver / adenoma + systemic / pathology …
rat [20] = settings: Combined chronic toxicity/carcinogenicity, fischer, Oral, Feed, dose end: 24 month, group: systemic
rat [21] = settings: Subchronic oral toxicity in rodents, fischer, Feed, dose end: 13 week, group: systemic
rat [22] = settings: Carcinogenicity, fischer, Oral, Feed, dose end: 103 week, group: systemic
mouse [23] = settings: Subchronic oral toxicity in rodents, b6c3f1, Feed, dose end: 13 week, group: systemic
mouse [24] = settings: Carcinogenicity, b6c3f1, Oral, Feed, dose end: 103 week, group: systemic
[25] = reproductive / reproductive performance / postimplantation loss / postimplantation loss + systemic / in life observation / body weight / …
[26] = group: developmental, systemic / in life observation / body weight / fetal weight
[27] = group: maternal, systemic / in life observation / clinical signs / piloerection
[28] = group: maternal, reproductive / reproductive performance / estrous cycle / abnormal + reproductive / reproductive performance / estrous cycle / corpora lutea…
[29] = group: parental, systemic / in life observation / clinical signs / fur (altered appearance) + systemic / in life observation / clinical signs / salivation
[30] = group: parental, systemic / in life observation / clinical signs / fur (altered appearance) + systemic / in life observation / clinical signs / salivation + …
[31] = systemic / in life observation / body weight / body weight + systemic / in life observation / body weight / body weight gain + systemic / in…
[32] = systemic / clinical chemistry / albumin / albumin + systemic / clinical chemistry / phosphorus / phosphorus + systemic / clinical chemistry…
[33] = systemic / hematology / reticulocyte / reticulocyte + systemic / pathology microscopic / lung / histiocytosis + systemic / hematology / …
[34] = group: parental, systemic / in life observation / clinical signs / piloerection
[35] = group: parental, systemic / in life observation / clinical signs / piloerection + systemic / in life observation / body weight / body weight + systemic / in …
[36] = systemic / in life observation / body weight / body weight gain + systemic / in life observation / clinical signs / erythema + systemic / in…
[37] = systemic / in life observation / body weight / body weight gain
[38] = systemic / organ weight / liver / absolute + systemic / organ weight / liver / relative to body weight
[39] = systemic / organ weight / liver / absolute + systemic / organ weight / liver / relative to body weight + systemic / clinical chemistry / …
[40] = group: developmental, developmental / developmental malformation / limb / hyperflexion + systemic / in life observation / body weight / fetal weight + …
[41] = group: maternal, systemic / in life observation / body weight / body weight gain + systemic / in life observation / food consumption / food consumption
[42] = group: maternal, systemic / in life observation / body weight / body weight gain + systemic / in life observation / food consumption / food consumption + …
[43] = group: developmental, developmental / developmental malformation / bone / incomplete ossification + systemic / in life observation / body weight / fetal weight
[44] = group: maternal, systemic / in life observation / body weight / body weight + systemic / in life observation / body weight / body weight gain + reproductive…
[45] = systemic / organ weight / liver / absolute
[46] = systemic / organ weight / liver / absolute + systemic / pathology microscopic / liver / adenocarcinoma + systemic / pathology microscopic / …
[47] = systemic / in life observation / body weight / body weight + systemic / pathology microscopic / bone / osteopetrosis + systemic / pathology …
[48] = systemic / pathology microscopic / bone / osteopetrosis + systemic / in life observation / body weight / body weight
[49] = systemic / in life observation / body weight / body weight gain + systemic / pathology microscopic / eye / cataract + systemic / pathology …
[50] = systemic / in life observation / mortality / mortality + systemic / pathology microscopic / adrenal gland / vacuolization cytoplasmic + …
[51] = systemic / pathology microscopic / uterus / hyperplasia
[52] = systemic / pathology microscopic / bone marrow / myelofibrosis + systemic / pathology microscopic / mammary gland / cyst + systemic / …
[53] = systemic / pathology microscopic / liver / adenoma + systemic / pathology microscopic / pituitary gland / adenoma + systemic / pathology …

Compound: COc1ccc2cc(S(=O)(=O)N[C@H](CC(=O)N[C@H](Cc3ccc(CN4[C@H](C)CCC[C@@H]4C)cc3)C(=O)N(C)C(C)C)c3ccc4c(c3)OCO4)ccc2c1.Cl
- LEL (rat [1]; reproductive / reproductive performance / postimplantation loss / postimplantation loss): 60 mg/kg/day
- LOAEL (rat [1]; [25]): > 180 mg/kg/day
- NEL (rat [1]; [25]): 20 mg/kg/day
- NOAEL (rat [1]; [25]): ≥ 180 mg/kg/day
- LEL (rat [2]; [26]): 120 mg/kg/day
- LOAEL (rat [2]; [26]): 120 mg/kg/day
- NEL (rat [2]; [26]): 60 mg/kg/day
- NOAEL (rat [2]; [26]): 60 mg/kg/day
- LEL (rat [2]; [27]): 30 mg/kg/day
- NEL (rat [2]; [27]): < 30 mg/kg/day
- LOAEL (rat [2]; group: maternal, systemic / in life observation / clinical signs / piloerection + systemic / in life observation / food consumption / food consumption): 60 mg/kg/day
- NOAEL (rat [2]; group: maternal, systemic / in life observation / clinical signs / piloerection + systemic / in life observation / food consumption / food consumption + …): 30 mg/kg/day
- LEL (rabbit [3]): 120 mg/kg/day
- LOAEL (rabbit [3]): > 120 mg/kg/day
- NEL (rabbit [3]): 60 mg/kg/day
- NOAEL (rabbit [3]): ≥ 120 mg/kg/day
- LEL (rat [4]; [28]): 180 mg/kg/day
- LOAEL (rat [4]; [28]): > 180 mg/kg/day
- NEL (rat [4]; [28]): 60 mg/kg/day
- NOAEL (rat [4]; [28]): ≥ 180 mg/kg/day
- LEL (rat [4]; [29]): 20 mg/kg/day
- NEL (rat [4]; [29]): < 20 mg/kg/day
- LOAEL (rat [4]; [30]): > 180 mg/kg/day
- NOAEL (rat [4]; [30]): ≥ 180 mg/kg/day
- LEL (rat [5]): 10 mg/kg/day
- LOAEL (rat [5]): > 100 mg/kg/day
- NEL (rat [5]): < 10 mg/kg/day
- NOAEL (rat [5]): ≥ 100 mg/kg/day
- LEL (dog [6]): 10 mg/kg/day
- LOAEL (dog [6]): 10 mg/kg/day
- NEL (dog [6]): < 10 mg/kg/day
- NOAEL (dog [6]): < 10 mg/kg/day
- LEL (rabbit [7]): 100 mg/kg/day
- LOAEL (rabbit [7]): 100 mg/kg/day
- NEL (rabbit [7]): 50 mg/kg/day
- NOAEL (rabbit [7]): 50 mg/kg/day
- LOAEL (rat [8]; [31]): 150 mg/kg/day
- NEL (rat [8]; [31]): 20 mg/kg/day
- NOAEL (rat [8]; [31]): 60 mg/kg/day
- LEL (rat [8]; systemic / in life observation / clinical signs / salivation): 60 mg/kg/day
- LOAEL (rat [9]; [32]): 60 mg/kg/day
- NOAEL (rat [9]; [32]): 20 mg/kg/day
- LEL (rat [9]; [33]): 20 mg/kg/day
- NEL (rat [9]; [33]): < 20 mg/kg/day
- LEL (rat [10]; [28]): 180 mg/kg/day
- LOAEL (rat [10]; [28]): 180 mg/kg/day
- NEL (rat [10]; [28]): 60 mg/kg/day
- NOAEL (rat [10]; [28]): 60 mg/kg/day
- LEL (rat [10]; [34]): 20 mg/kg/day
- NEL (rat [10]; [34]): < 20 mg/kg/day
- LOAEL (rat [10]; [35]): 180 mg/kg/day
- NOAEL (rat [10]; [35]): 60 mg/kg/day

Compound: CCCCCCCCCCC(C)c1ccc(S(=O)(=O)O)cc1 (stereo unspecified) [Alkylbenzenesulfonate, linear]
- LEL (mouse [11]; reproductive / offspring survival early / dead fetuses / dead fetuses + systemic / in life observation / clinical signs / irritability): 50 mg/kg/day
- LOAEL (mouse [11]; systemic / in life observation / body weight / body weight gain + systemic / in life observation / clinical signs / erythema + reproductive…): 500 mg/kg/day
- NEL (mouse [11]; [36]): 5 mg/kg/day
- NOAEL (mouse [11]; [36]): 50 mg/kg/day
- LEL (rabbit [12]; [37]): 9 mg/kg/day
- LOAEL (rabbit [12]; [36]): > 90 mg/kg/day
- NEL (rabbit [12]; [36]): 0.9 mg/kg/day
- NOAEL (rabbit [12]; [36]): ≥ 90 mg/kg/day

Compound: CC(C)Oc1cc(-n2nc(C(C)(C)C)oc2=O)c(Cl)cc1Cl [Oxadiazon]
- LEL (rat [13]): 100 mg/kg/day
- LOAEL (rat [13]): 100 mg/kg/day
- NEL (rat [13]): 25 mg/kg/day
- NOAEL (rat [13]): 25 mg/kg/day
- LEL (dog [14]; [38]): 20 mg/kg/day
- LOAEL (dog [14]; [38]): 20 mg/kg/day
- NEL (dog [14]; [39]): 5 mg/kg/day
- NOAEL (dog [14]; [39]): 5 mg/kg/day
- LEL (rabbit [15]; [40]): 180 mg/kg/day
- LOAEL (rabbit [15]; [40]): 180 mg/kg/day
- NEL (rabbit [15]; [40]): 60 mg/kg/day
- NOAEL (rabbit [15]; [40]): 60 mg/kg/day
- LEL (rabbit [15]; [41]): 60 mg/kg/day
- LOAEL (rabbit [15]; [41]): 60 mg/kg/day
- NEL (rabbit [15]; [42]): 20 mg/kg/day
- NOAEL (rabbit [15]; [42]): 20 mg/kg/day
- LEL (mouse [16]): 0.315 mg/kg/day
- LOAEL (mouse [16]): 10.6 mg/kg/day
- NEL (mouse [16]): < 0.315 mg/kg/day
- NOAEL (mouse [16]): 1.09 mg/kg/day
- LEL (dog [17]): 25 mg/kg/day
- LOAEL (dog [17]): 25 mg/kg/day
- NEL (dog [17]): < 25 mg/kg/day
- NOAEL (dog [17]): < 25 mg/kg/day
- LEL (rat [18]; [43]): 40 mg/kg/day
- LOAEL (rat [18]; [43]): 40 mg/kg/day
- NEL (rat [18]; [43]): 12 mg/kg/day
- NOAEL (rat [18]; [43]): 12 mg/kg/day
- LOAEL (rat [18]; group: maternal, systemic / in life observation / body weight / body weight + systemic / in life observation / body weight / body weight gain): 40 mg/kg/day
- LEL (rat [18]; [44]): 40 mg/kg/day
- NEL (rat [18]; [44]): 12 mg/kg/day
- NOAEL (rat [18]; [44]): 12 mg/kg/day
- LEL (mouse [19]): 12 mg/kg/day
- LOAEL (mouse [19]): 12 mg/kg/day
- NEL (mouse [19]): < 12 mg/kg/day
- NOAEL (mouse [19]): < 12 mg/kg/day
- LEL (rat [20]; [45]): 4.8 mg/kg/day
- LOAEL (rat [20]; [45]): 4.8 mg/kg/day
- NEL (rat [20]; [46]): 0.5 mg/kg/day
- NOAEL (rat [20]; [46]): 0.5 mg/kg/day

Compound: C[C@H]1CCCC(=O)CCC/C=C/c2cc(O)cc(O)c2C(=O)O1 [Zearalenone]
- LOAEL (rat [21]; [47]): > 150 mg/kg/day
- NOAEL (rat [21]; [47]): ≥ 150 mg/kg/day
- LEL (rat [21]; [48]): 1.5 mg/kg/day
- NEL (rat [21]; [48]): < 1.5 mg/kg/day
- LOAEL (rat [22]; [37]): 2.5 mg/kg/day
- LEL (rat [22]; [49]): 1.25 mg/kg/day
- NEL (rat [22]; [49]): < 1.25 mg/kg/day
- NOAEL (rat [22]; [49]): 1.25 mg/kg/day
- LOAEL (mouse [23]; [50]): > 450 mg/kg/day
- NOAEL (mouse [23]; [50]): ≥ 450 mg/kg/day
- LEL (mouse [23]; [51]): 4.5 mg/kg/day
- NEL (mouse [23]; [51]): < 4.5 mg/kg/day
- LEL (mouse [24]; [52]): 7.5 mg/kg/day
- NEL (mouse [24]; [52]): < 7.5 mg/kg/day
- LOAEL (mouse [24]; [53]): > 15 mg/kg/day
- NOAEL (mouse [24]; [53]): ≥ 15 mg/kg/day

From EPA's ToxRefDB 2
